Oligonucleotides are written 5' to 3', each unit as a sugar letter and its base; * is a phosphorothioate linkage, no mark a phosphodiester; rarer units and linkages stand in square brackets, end groups in braces. Plain capitals give the bases only. e = 2'-O-(2-methoxyethyl) (MOE); [5mC] = 5-methylcytosine; d = 2'-deoxy (DNA)
How the values were obtained:
[1] = test system: murine TTC39A mRNA; assay: Antisense inhibition of mouse TTC39A in b.END cells, single dose; format: cell-based; conditions: 70 nM, cytofectin, ~24 h, vs untreated control
Procedure: Antisense oligonucleotides were designed targeting a TTC39A nucleic acid and were tested for their effects on TTC39A mRNA in vitro. Cultured b.END cells at a density of 4,000 cells per well were transfected using cytofectin reagent with 70 nM antisense oligonucleotide. After a treatment period of approximately 24 hours, RNA was isolated from the cells and TTC39A mRNA levels were measured by quantitative real-time PCR. Mouse primer probe set RTS3262 (forward sequence TGTGCGTCATGCTGTTGCT, designated herein as SEQ ID NO: 113; reverse sequence […], designated herein as SEQ ID NO: 114; probe sequence […], designated herein as SEQ ID NO: 115). TTC39A mRNA levels were adjusted according to total RNA content, as measured by RIBOGREEN®. Results are presented as percent inhibition of TTC39A, relative to untreated control cells.
The chimeric antisense oligonucleotides targeting TTC39A were designed as 5-10-5 MOE gapmers. The gapmers are 20 nucleotides in length, wherein the central gap segment is comprised of ten 2′-deoxynucleotides and is flanked on both sides (in the 5′ and 3′ directions) by wings comprising five nucleotides each. Each nucleotide in the 5′ wing segment and each nucleotide in the 3′ wing segment has a 2′-MOE modification. The internucleoside linkages throughout each gapmer are phosphorothioate (P═S) linkages. All cytosine residues throughout each gapmer are 5-methylcytosines. “Mouse Target start site” indicates the 5′-most nucleotide to which the gapmer is targeted in a mouse nucleic acid sequence.

[2] = test system: murine TTC39A mRNA; assay: Dose-dependent antisense inhibition of murine TTC39A in b.END cells; format: cell-based, mouse; conditions: ~16 h; for IC50: cytofectin
Procedure: Cells were plated at a density of 3,500 cells per well and transfected using cytofectin reagent with 4.375 nM, 8.75 nM, 17.5 nM, 35 nM, 70 nM, and 140 nM concentrations of antisense oligonucleotide, as specified in Table 28. After a treatment period of approximately 16 hours, RNA was isolated from the cells and TTC39A mRNA levels were measured by quantitative real-time PCR. Murine primer probe set RTS3262 was used to measure mRNA levels. TTC39A mRNA levels were adjusted according to total RNA content, as measured by RIBOGREEN®. Results are presented as percent inhibition of TTC39A, relative to untreated control cells.

[3] = test system: murine TTC39B mRNA; assay: Dose-dependent antisense inhibition of murine TTC39B in mouse primary hepatocytes (Example 3); format: cell-based; conditions: cytofectin, ~16 h
Procedure: (§1) Cells were plated at a density of 10,000 cells per well and transfected using cytofectin reagent with 6.25 nM, 12.5 nM, 25 nM, 50 nM, 100 nM, and 200 nM concentrations of antisense oligonucleotide, as specified in Table 4. After a treatment period of approximately 16 hours, RNA was isolated from the cells and TTC39B mRNA levels were measured by quantitative real-time PCR. Murine primer probe set mTtc39b_LTS00287 was used to measure mRNA levels. TTC39B mRNA levels were adjusted according to total RNA content, as measured by RIBOGREEN®. Results are presented as percent inhibition of TTC39B, relative to untreated control cells.

[4] = test system: murine TTC39B mRNA; assay: Dose-dependent antisense inhibition of murine TTC39B in mouse primary hepatocytes (Example 2); format: cell-based; conditions: cytofectin, ~16 h
Procedure: as §1, with “with” for “with 6.25 nM, 12.5 nM,”, “3.” for “4.”, “mTtc39b_LTS00287 (forward sequence: […], incorporated herein as SEQ ID NO: 94; reverse sequence: […], incorporated herein as SEQ ID NO: 95; probe sequence: […], incorporated herein as SEQ ID NO: 96)” for “mTtc39b_LTS00287”

[5] = test system: murine TTC39B mRNA; assay: Antisense inhibition of murine TTC39B in mouse primary hepatocytes, single dose; format: cell-based; conditions: 100 nM, cytofectin, ~24 h, vs untreated control; gapmers targeted to SEQ ID NO: 10-14
In short: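 Mouse primary hepatocytes transfected by cytofectin with 100 nM 5-10-5 MOE gapmer (20-mer, phosphorothioate, 5-methylcytosine) for ~24 h. TTC39B mRNA quantified by real-time qPCR, normalized to RIBOGREEN total RNA. Values given as percent inhibition versus untreated cells.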

Sequence | % inhibition of murine TTC39A mRNA [1] [%] | percent inhibition of TTC39A mRNA ([2]; 4.375 nM) [%] | percent inhibition of TTC39A mRNA ([2]; 8.75 nM) [%] | percent inhibition of TTC39A mRNA ([2]; 17.5 nM) [%] | percent inhibition of TTC39A mRNA ([2]; 35.0 nM) [%] | percent inhibition of TTC39A mRNA ([2]; 70.0 nM) [%] | percent inhibition of TTC39A mRNA ([2]; 140.0 nM) [%] | IC50 [2] [nM] | percent inhibition of TTC39B mRNA ([3]; 6.25 nM) [%] | percent inhibition of TTC39B mRNA ([3]; 12.5 nM) [%] | percent inhibition of TTC39B mRNA ([3]; 25.0 nM) [%] | percent inhibition of TTC39B mRNA ([3]; 50.0 nM) [%] | percent inhibition of TTC39B mRNA ([3]; 100.0 nM) [%] | percent inhibition of TTC39B mRNA ([3]; 200.0 nM) [%] | percent inhibition of TTC39B mRNA ([4]; 25 nM) [%] | percent inhibition of TTC39B mRNA ([4]; 50 nM) [%] | percent inhibition of TTC39B mRNA ([4]; 100 nM) [%] | percent inhibition of TTC39B mRNA ([4]; 200 nM) [%] | % inhibition of murine TTC39B mRNA [5] [%]
TGCACTGGTCCAGGGCCTCA (eT*eG*e[5mC]*eA*e[5mC]*dT*dG*dG*dT*d[5mC]*d[5mC]*dA*dG*dG*dG*e[5mC]*e[5mC]*eT*e[5mC]*eA; antisense) [ISIS 474351] | 94 | 6 | 0 | 8 | 48 | 66 | 84 | 44 | – | – | – | – | – | – | – | – | – | – | –
TCCTTGCTCAGCAGGTCGGC (eT*e[5mC]*e[5mC]*eT*eT*dG*d[5mC]*dT*d[5mC]*dA*dG*d[5mC]*dA*dG*dG*eT*e[5mC]*eG*eG*e[5mC]; antisense) [ISIS 474366] | 93 | 0 | 0 | 23 | 45 | 64 | 80 | 43 | – | – | – | – | – | – | – | – | – | – | –
AGTTGGGACCCAGAAGGCCT (eA*eG*eT*eT*eG*dG*dG*dA*d[5mC]*d[5mC]*d[5mC]*dA*dG*dA*dA*eG*eG*e[5mC]*e[5mC]*eT; antisense) [ISIS 474497] | 94 | 8 | 5 | 21 | 29 | 53 | 77 | 72 | – | – | – | – | – | – | – | – | – | – | –
TGTCAGTGACAGTGGCAGCT (antisense eT*eG*eT*e[5mC]*eA*dG*dT*dG*dA*d[5mC]*dA*dG*dT*dG*dG*e[5mC]*eA*eG*e[5mC]*eT) [ISIS 447159] | – | – | – | – | – | – | – | – | 12 | 19 | 37 | 62 | 78 | 86 | 41 | 60 | 76 | 85 | 71
GCCTCAGAATCCTGGTGGGA (eG*e[5mC]*e[5mC]*eT*e[5mC]*dA*dG*dA*dA*dT*d[5mC]*d[5mC]*dT*dG*dG*eT*eG*eG*eG*eA; antisense) [ISIS 474437] | 94 | 5 | 6 | 26 | 36 | 62 | 82 | 49 | – | – | – | – | – | – | – | – | – | – | –
CGCCTGGACTTCCGGATAGC (e[5mC]*eG*e[5mC]*e[5mC]*eT*dG*dG*dA*d[5mC]*dT*dT*d[5mC]*d[5mC]*dG*dG*eA*eT*eA*eG*e[5mC]; antisense) [ISIS 474369] | 96 | 0 | 14 | 22 | 48 | 62 | 82 | 44 | – | – | – | – | – | – | – | – | – | – | –
CCGCACTTTGATGCCGCCCT (e[5mC]*e[5mC]*eG*e[5mC]*eA*d[5mC]*dT*dT*dT*dG*dA*dT*dG*d[5mC]*d[5mC]*eG*e[5mC]*e[5mC]*e[5mC]*eT; antisense) [ISIS 474435] | 94 | 0 | 2 | 11 | 8 | 52 | 76 | 67 | – | – | – | – | – | – | – | – | – | – | –
TCGGTGCCTCTGACACAGCG (eT*e[5mC]*eG*eG*eT*dG*d[5mC]*d[5mC]*dT*d[5mC]*dT*dG*dA*d[5mC]*dA*e[5mC]*eA*eG*e[5mC]*eG; antisense) [ISIS 474474] | 97 | 0 | 5 | 27 | 56 | 72 | 87 | 33 | – | – | – | – | – | – | – | – | – | – | –
CACCTGGGTTTGAGGTAGCT (e[5mC]*eA*e[5mC]*e[5mC]*eT*dG*dG*dG*dT*dT*dT*dG*dA*dG*dG*eT*eA*eG*e[5mC]*eT; antisense) [ISIS 474498] | 95 | 0 | 6 | 33 | 55 | 64 | 80 | 35 | – | – | – | – | – | – | – | – | – | – | –
GCATGTAGAGAACTTCCAGG (eG*e[5mC]*eA*eT*eG*dT*dA*dG*dA*dG*dA*dA*d[5mC]*dT*dT*e[5mC]*e[5mC]*eA*eG*eG; antisense) [ISIS 474382] | 95 | 0 | 10 | 24 | 41 | 68 | 80 | 42 | – | – | – | – | – | – | – | – | – | – | –
TCCATGGAGTAGTTCTTGTA (eT*e[5mC]*e[5mC]*eA*eT*dG*dG*dA*dG*dT*dA*dG*dT*dT*d[5mC]*eT*eT*eG*eT*eA; antisense) [ISIS 474452] | 92 | 0 | 9 | 36 | 46 | 61 | 86 | 41 | – | – | – | – | – | – | – | – | – | – | –

From US20120270929A1, “MODULATION OF TTC39 EXPRESSION TO INCREASE HDL” (ISIS Pharmaceuticals, Inc., priority 2009, published 2012)
